Reference: patent US12662688B2, “Site-selective deuteration of amino acids through dual protein catalysis” (Wisconsin Alumni Research Foundation, priority 2022, dated 2026)

Experiments:
DsaD-MfnH protein pair = assay: Analytical-scale H/D exchange with purified DsaD and MfnH; format: biochemical, Streptomyces scopuliridis; Streptomyces drozdowiczii; settings: 5 μM DsaD, 50 μM MfnH (1:10 DsaD:MfnH)
Method: FIG. 4. Deuteration of L-Leu using purified DsaD (5 μM) and MfnH (50 μM) using the described procedure for analytical-scale H/D exchange. Results are reported as the average of 2 trials.
(§1) General procedure analytical scale deuteration reactions: α/β deuteration reactions were performed as follows. A 1 mL Eppendorf tube was charged with amino acid (10-20 mM final concentration), Na3PO4 buffer pD 8.4 (50 mM final concentration), PLP (100 μM final concentration), purified enzymes or appropriate lysate and D2O and to the appropriate final volume (typically 50 μL). Reactions were carried out at 37° C. for 8 h and quenched by the addition of 3 volumes of acetonitrile. Precipitated biomolecules were pelleted by centrifugation (16,000×g, 10 min) and samples were processed as described below.
In the original report by Li et al. describing DsaE, a homologous enzyme with 42% sequence identity, MfnH, was disclosed.^29 This homolog could operate with DsaD to catalyze Cβ-epimerization of Ile. Here, we test the ability of MfnH to productively catalyze H/D exchange reactions. We performed reactions with purified MfnH, DsaD (1:10 DsaD:MfnH), and L-Leu under the conditions described for DsaD/E-catalyzed reactions (FIG. 4). […] We also attempted isolation of MfnO, the native BCAT partner of MfnH, but produced only apo-enzyme.

DsaD/E lysates = assay: Analytical-scale H/D exchange with pre-dialyzed DsaD and DsaE lysates; format: biochemical, Streptomyces scopuliridis; settings: lysates pre-dialyzed into D2O—Na3PO4 buffer pD 8.4, 99.9% D
Method: FIG. 6. Deuteration of L-Leu under conditions with minimal H2O contamination (99.9% D) using DsaD and DsaE lysates that were pre-dialyzed in 50 mM D2O—Na3PO4 (pD 8.4). Reactions performed using the described procedure for analytical-scale H/D exchange. Results are reported as the average of 3 trials.
as §1
Exchange of DsaD and DsaE into D2O—Na3PO4 buffer system: When necessary, clarified lysates and purified proteins were exchanged into a D2O-based buffer system containing 50 mM Na3PO4 (−) using a Slide-A-Lyzer MINI dialysis device (ThermoFisher) with a 3 KDa cutoff. A maximum of 500 μL of lysate or protein was added to the device and exchanged 3 times into the D2O buffer at 4° C. before setting up reactions.

[1] = target: T1, DsaE with native E. coli BCATs (Escherichia coli, UniProt P0AB80); assay: Analytical-scale H/D exchange with DsaE lysate only; format: biochemical; settings: 5% v/v DsaE lysate, no DsaD
T1 construct: DsaE can utilize native BCATs present at biological concentrations (without overexpression) to perform H/D exchange; made in house; host or cells: Clarified lysate of E. coli BL21(DE3) overexpressing DsaE; the BCAT is endogenous to the host
Method: (§2) FIG. 7. Deuteration of L-Leu using only DsaE lysate (5% v/v) with minimal H2O contamination (99.9% D). Reactions were performed using the described procedure for analytical-scale H/D exchange. Results are reported as the average of 3 trials.
(§3) In another version, DsaE operates with a BCAT enzyme other than DsaD to effect a Cα/Cβ-exchange. For example, DsaE clarified cell lysates (CCLs) can achieve Cα and Cβ-deuteration without the addition of the aminotransferase DsaD. Instead of relying on DsaD as a partner for catalysis, DsaE promiscuously interacts with native branched-chain amino acid aminotransferases (BCATs) expressed by E. coli (SEQ ID NO: 2) for primary metabolism. No overexpression of BCAT is necessary to induce this activity. We simply overexpressed partner protein DsaE and generated a clarified cell lysate from the resulting E. coli. […] The reaction is as follows:
as §1, with “Precipitated biomolecules were pelleted by centrifugation (16,000×g, 10 min) and samples were processed as described below.” left out

[2] = target: T2, DsaE with native E. coli BCATs (Escherichia coli, UniProt P0AB80, E236D); assay: as above; format: biochemical; settings: 5% v/v DsaE lysate, no DsaD
T2 construct: DsaE can utilize native BCATs present at biological concentrations (without overexpression) to perform H/D exchange; made in house; host or cells: Clarified lysate of E. coli BL21(DE3) overexpressing DsaE; the BCAT is endogenous to the host
Method: as §2, §3
as §1, with “Precipitated biomolecules were pelleted by centrifugation (16,000×g, 10 min) and samples were processed as described below.” left out

T1 sequence (P0AB80 2-309 E236D): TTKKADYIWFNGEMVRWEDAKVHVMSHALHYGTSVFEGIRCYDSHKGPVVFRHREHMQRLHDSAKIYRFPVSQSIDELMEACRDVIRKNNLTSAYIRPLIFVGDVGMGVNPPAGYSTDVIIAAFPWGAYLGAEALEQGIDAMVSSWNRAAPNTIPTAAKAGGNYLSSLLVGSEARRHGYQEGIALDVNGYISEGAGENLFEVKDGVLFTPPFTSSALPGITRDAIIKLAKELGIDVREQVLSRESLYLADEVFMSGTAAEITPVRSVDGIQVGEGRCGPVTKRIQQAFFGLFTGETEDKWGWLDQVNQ
T1 sequence (as listed by the source, change not shown): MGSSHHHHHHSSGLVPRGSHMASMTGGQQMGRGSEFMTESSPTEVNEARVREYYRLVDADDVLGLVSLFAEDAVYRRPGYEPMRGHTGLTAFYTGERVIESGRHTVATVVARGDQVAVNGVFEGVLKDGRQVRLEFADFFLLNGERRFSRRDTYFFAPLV
T2 sequence (P0AB80 2-309 E236D): as the sequence (P0AB80 2-309 E236D) above
T2 sequence (as listed by the source, stated change not applied): as the sequence (as listed by the source, change not shown) above

**Q.** `CC(C)C[C@H](N)C(=O)O` [Leu, leucine] was tested. Which “deuterium labeling at Cβ” value (DsaD-MfnH protein pair) did it give?
**A.** 58%

**Q.** And the “exchange at Cα” value (DsaD-MfnH protein pair)?
**A.** 93%

**Q.** What about the “D-incorporation at Cα” value (DsaD/E lysates) of the same molecule?
**A.** > 99%

**Q.** And the “D-incorporation at Cβ” value (DsaD/E lysates)?
**A.** 98%

**Q.** And the “deuterium incorporation at Cβ” value [1]?
**A.** 70%

**Q.** And the “labeling at Cα” value [2]?
**A.** > 95%
